# Reference: patent US5466669A, “Immunostimulatory agent” (Morinaga Milk Industry Co., Ltd., priority 1993, dated 1995)
# Columns and labels:
# [1] = test system: rat peritoneal mast cells; assay: Test 1: histamine release from rat peritoneal mast cells induced by calcium ionophore A23187; assay type: cell-based; conditions: for Histamine release (Relative %): A23187 5 μM, control (saline) = 100
# Method: This test was performed to study the activity of the peptide of the present invention to promote the release of histamine from rat peritoneal mast cells induced by the calcium ionophore A23187.
# Peritoneal cells were collected from Wistar rats after intraperitoneal injection of phosphate-buffered saline (consisting of 120 mM NaCl, 10 mM Na2 PO4, 3 mM KH2 PO4, pH 7.4). Their abdoments were massaged and the buffer containing the cells was recovered. The cells were centrifuged at 300×g for 15 min and washed twice with phosphate-buffered saline. The cells from several rats were pooled for use in the experiments.
# Rat peritoneal cells containing about 1×10^5 mast cells per ml were used as the target cells. A 500 μl volume of the cell suspension was incubated with 100 μl volume of the test substance [purified peptide obtained by the method as in Example 1, or human lactoferrin (Sigma Chemical Co.), or bovine lactoferrin (Morinaga Milk industry Co.)] at 37° C. for 3O min. Thereafter, histamine release from the mast cells was induced by the addition of calcium ionophore A23187 (Sigma Chemical Co.) at a final concentration of 5 μM. After 10 min of incubation the cells were centrifuged at 300×g for 15 min and the supernatant was removed and deproteinized by the addition of 2 ml of HClO4 (2%). The deproteinized sample was then centrifuged at 2000×g for 20 min and the histamine content in the supernatant was determined by the fluorophotometric analyser technique (AutoAnalyzer: Technikon). Cells in the presence of phosphate-buffered saline served as control.
# [2] = test system: rat peritoneal mast cells; assay: Test 2: histamine release from rat peritoneal mast cells induced by α-toxin-producing Staphylococcus aureus cells; assay type: cell-based; conditions: for Histamine release (Relative %): S. aureus 121 about 1.0×10^8 cells per ml, control (saline) = 100
# Method: This test was performed to study the activity of the peptide of the present invention to promote the release of histamine from rat peritoneal mast cells induced by α-toxin-producing Staphylococcus aureus cells.
# Staphylococcus aureus 121, an α-toxin-producing strain, was cultured overnight in Brain Heart Infusion broth at 37° C. The bacterial cells were collected by centrifugation at 4000×g for 20 min, washed with phosphate-buffered saline, and suspended in the same buffer for use in the experiment. Rat peritoneal cells were prepared as in Test 1.
# The same method as in Test 1 was used, except histamine release from the mast cells was induced by the addition of α-toxin-producing Staphylococcus aureus cells at a final concentration of about 1.0×10^8 cells per ml.
# [3] = test system: human polymorphonuclear neutrophils; assay: Test 3: leukotriene release from human polymorphonuclear neutrophils induced by calcium ionophore A23187; assay type: cell-based; conditions: for Leukotriene released (ng) B4 / Leukotriene released (ng) C4 / Leukotriene released (ng) 20-COOH / Leukotriene released (ng) 20-OH: A23187 5 μM; for Leukotriene released (ng) B4: saline control 12; for Leukotriene released (ng) C4: saline control 18; for Leukotriene released (ng) 20-COOH: saline control 31; for Leukotriene released (ng) 20-OH: saline control 55; for Leukotriene released (ng) (Total B4): sum of B4, 20-OH and 20-COOH, saline control 98
# Method: This test was performed to study the activity of the peptide of the present invention to promote the release of leukotriene B4 from human polymorphonuclear neutrophils induced by the calcium ionophore A23187.
# Human polymorphonuclear neutrophils were prepared by fractionation of leukocytes from heparinized blood of healthy donors on a Ficoll-metrizoategradient followed by dextran sedimentation. The cells were centrifuged at 300×g, and washed three times with phosphate-buffered saline, after which less than 2% of the platelets remained. Erythrocytes were removed by exposing the cells to hypotonic conditions. The purity of the polymorphonuclear neutrophil fraction used was greater than 97% as confirmed by light microscopy.
# For analysis of leukotriene release, human neutrophils suspended in phosphate-buffered saline at approximately 1×10^7 cells per ml were used as the target cells. The cells were incubated for 30 min in the presence of test substance [(purified peptide obtained by the method as in Example 1, or human lactoferrin (Sigma Chemical Co.), or bovine lactoferrin (Morinaga Milk Industry Co.)]. Leukotriene release from the neutrophils was then induced by the addition of calcium ionophore A23187 (Sigma chemical Co.) at a final concentration of 5 μM. After 30 min, the supernatants of the stimulated cells were deproteinized by addition of 2 ml of methanol-acetonitrile (1:1) overlaid with nitrogen and frozen for 12 h at -70° C. After centrifugation at 1000×g for 15 min the supernatant was evaporated to dryness in a freeze dryer, suspended in 0.5 ml of methanol-water (30:70), overlaid with nitrogen, and stored overnight at -70° C. The samples were centrifuged at 1000×g and the supernatant was assayed for the presence of leukotrienes by high pressure liquid chromatography using a reverse-phase column of Nucleosil (C18; 5 μm particles) at a column temperature of 40° C. The solvent system was a mixture of phosphate buffer (17 mM K2 HPO4 containing 0.05% EDTA), acetonitrile, and methanol (50:30:20) adjusted to pH 5.0 with phosphoric acid. The absorbance at 280 nm of the column effluent was monitored and recorded. The concentration of each eluted leukotriene was determined from the peak area by means of a computing integrator. The leukotrienes were identified from their retention times with reference to known standards. The minimum detectable quantity was 1 ng in each instance.
# [4] = test system: peritoneal mast cells; conditions: Theobald et al. 1987; cited from earlier work
substance,measurement,setting,value
Phe-Lys-Cys-Arg-Arg-Trp-Gln-Trp-Arg-Met-Lys-Lys-Leu-Gly-Ala-Pro-Ser-Ile-Thr-Cys-Val-Arg-Arg-Ala-Phe (FKCRRWQWRMKKLGAPSITCVRRAF; printed: Phe-Lys-Cys-Arg-Arg-Trp-Gln-Trp-Arg-Met-Lys-Lys-Leu-Gly-Ala-Pro-Ser-Ile-Thr-Cys-Val-Arg-Arg-Ala-Phe) [purified peptide],Histamine release (Relative %),[1]; 1 ppm test substance,135 ± 10 Relative %
same,activity to promote the release of histamine from mast cells induced by A23187 (in words),[1]; 1 to 100 ppm,has activity to promote the release of histamine
same,Histamine release (Relative %),[1]; 10 ppm test substance,145 ± 15 Relative %
same,Histamine release (Relative %),[1]; 100 ppm test substance,175 ± 20 Relative %
same,Histamine release (Relative %),[2]; 1 ppm test substance,200 ± 60 Relative %
same,activity to promote the release of histamine from mast cells induced by α-toxin-producing Staphylococcus aureus cells (in words),[2]; 1 to 100 ppm,has activity to promote the release of histamine
same,Histamine release (Relative %),[2]; 10 ppm test substance,250 ± 50 Relative %
same,Histamine release (Relative %),[2]; 100 ppm test substance,460 ± 240 Relative %
same,Leukotriene released (ng) B4,[3]; 1 ppm test substance,12 ng
same,Leukotriene released (ng) C4,[3]; 1 ppm test substance,23 ng
same,Leukotriene released (ng) 20-COOH,[3]; 1 ppm test substance,51 ng
same,Leukotriene released (ng) 20-OH,[3]; 1 ppm test substance,70 ng
same,Leukotriene released (ng) (Total B4),[3]; 1 ppm test substance,133 ng
same,activity to promote the release of leukotriene B4 from polymorphonuclear neutrophils (in words),[3]; 1 to 100 ppm,promotes the release of leukotriene B4
same,Leukotriene released (ng) B4,[3]; 10 ppm test substance,14 ng
same,Leukotriene released (ng) C4,[3]; 10 ppm test substance,17 ng
same,Leukotriene released (ng) 20-COOH,[3]; 10 ppm test substance,61 ng
same,Leukotriene released (ng) 20-OH,[3]; 10 ppm test substance,116 ng
same,Leukotriene released (ng) (Total B4),[3]; 10 ppm test substance,191 ng
same,Leukotriene released (ng) B4,[3]; 100 ppm test substance,18 ng
same,Leukotriene released (ng) C4,[3]; 100 ppm test substance,23 ng
same,Leukotriene released (ng) 20-COOH,[3]; 100 ppm test substance,104 ng
same,Leukotriene released (ng) 20-OH,[3]; 100 ppm test substance,162 ng
same,Leukotriene released (ng) (Total B4),[3]; 100 ppm test substance,284 ng
lactoferrin,effect on calcium ionophore-induced release of histamine from peritoneal mast cells (in words),[4],has activity to inhibit calcium ionophore-induced release of histamine
